Data published in ChEMBL document CHEMBL2016506, “Glucose-aspirin: Synthesis and in vitro anti-cancer activity studies” (Bioorg Med Chem Lett, 2012).
Calls of active or inactive are those of the source. The calls are words filed in the database; no cut-off is given here.

Key:
SK-BR-3 [1] = experiment: Growth inhibition of human SKBR3 cells at 300 uM after 48 hrs by alamar blue assay; assay type: functional
WI-38 [2] = experiment: Cytotoxicity against human WI38 cells at 2 x 10^-3 to 3 x 10^-4 M after 48 hrs by alamar blue assay; assay type: cell-based; conditions: wi-38, 48 h
PC-3 [3] = experiment: Cytotoxicity against human PC3 cells after 24 hrs by alamar blue assay; assay type: functional, cell-based; conditions: PC-3, 24 h
PC-3 [4] = experiment: Growth inhibition of human PC3 cells at 2 x 10^-3 to 1.5 x 10^-4 M after 48 hrs by alamar blue assay; assay type: functional, cell-based
SK-BR-3 [5] = experiment: Growth inhibition of human SKBR3 cells at 2 x 10 '-3 M to 1.5 x 10^-4 M after 24 hrs by alamar blue assay; assay type: functional
SK-BR-3 [6] = experiment: Growth inhibition of human SKBR3 cells at 2 x 10^-3 to 1.5 x 10^-4 M after 48 hrs by alamar blue assay; assay type: functional, cell-based
PANC-1 [7] = experiment: Growth inhibition of human PANC1 cells at 300 uM after 48 hrs by alamar blue assay; assay type: functional
PANC-1 [8] = experiment: Growth inhibition of human PANC1 cells at 2 x 10^-3 to 1.5 x 10^-4 M after 48 hrs by alamar blue assay; assay type: functional, cell-based
PC-3 [9] = experiment: Growth inhibition of human PC3 cells at 2 x 10 '-3 M to 1.5 x 10^-4 M after 24 hrs by alamar blue assay; assay type: functional
WI-38 [10] = experiment: Cytotoxicity against human WI38 cells at 2 x 10^-3 to 3 x 10^-4 M after 24 hrs by alamar blue assay; assay type: cell-based; conditions: wi-38, 24 h
PC-3 [11] = experiment: Growth inhibition of human PC3 cells at 300 uM after 48 hrs by alamar blue assay; assay type: functional
PANC-1 [12] = experiment: Growth inhibition of human PANC1 cells at 2 x 10 '-3 M to 1.5 x 10^-4 M after 24 hrs by alamar blue assay; assay type: functional
[13] = Aqueous solubility of the compound in 43 ml water; assay type: physicochemical; conditions: buffer
PC-3 [14] = experiment: Cytotoxicity against human PC3 cells after 48 hrs by alamar blue assay; assay type: functional, cell-based; conditions: PC-3, 48 h
[15] = Drug metabolism in human serum assessed as compound hydrolysis after 3 hrs by HPLC analysis; assay type: ADME, cell-free; conditions: read-out: Drug metabolism
PC-3 [16] = experiment: Growth stimulation of human PC3 cells at 2 x 10^-3 M after 24 to 48 hrs by alamar blue assay; assay type: functional, cell-based
WI-38 [17] = experiment: Cytotoxicity against human WI38 cells after 48 hrs by alamar blue assay; assay type: cell-based; conditions: WI-38, 48 h
PANC-1 [18] = experiment: Growth inhibition of human PANC1 cells at 150 uM after 48 hrs by alamar blue assay; assay type: functional; conditions: PANC-1, 48 h, read-out: GI
SK-BR-3 [19] = experiment: Cytotoxicity against human SKBR3 cells after 24 hrs by alamar blue assay; assay type: functional, cell-based; conditions: SK-BR-3, 24 h
WI-38 [20] = experiment: Cytotoxicity against human WI38 cells at 300 uM after 24 hrs by alamar blue assay; assay type: cell-based; conditions: wi-38, 24 h
PC-3 [21] = experiment: Growth inhibition of human PC3 cells at 300 uM after 24 hrs by alamar blue assay; assay type: functional; conditions: PC-3, 24 h, read-out: GI
PC-3 [22] = experiment: Ratio of IC50 for aspirin to compound IC50 for human PC3 cells; assay type: functional
WI-38 [23] = experiment: Cytotoxicity against human WI38 cells after 24 hrs by alamar blue assay; assay type: cell-based; conditions: WI-38, 24 h
SK-BR-3 [24] = experiment: Growth inhibition of human SKBR3 cells at 150 uM after 48 hrs by alamar blue assay; assay type: functional; conditions: SK-BR-3, 48 h, read-out: GI
SK-BR-3 [25] = experiment: Growth inhibition of human SKBR3 cells at 300 uM after 24 hrs by alamar blue assay; assay type: functional; conditions: SK-BR-3, 24 h, read-out: GI
PANC-1 [26] = experiment: Cytotoxicity against human PANC1 cells after 48 hrs by alamar blue assay; assay type: functional, cell-based; conditions: PANC-1, 48 h
PANC-1 [27] = experiment: Cytotoxicity against human PANC1 cells after 24 hrs by alamar blue assay; assay type: functional, cell-based; conditions: PANC-1, 24 h
PANC-1 [28] = experiment: Growth inhibition of human PANC1 cells at 300 uM after 24 hrs by alamar blue assay; assay type: functional; conditions: PANC-1, 24 h, read-out: GI
PC-3 [29] = experiment: Growth inhibition of human PC3 cells at 150 uM after 48 hrs by alamar blue assay; assay type: functional; conditions: PC-3, 48 h, read-out: GI
WI-38 [30] = experiment: Growth stimulation of human WI38 cells at 2 x 10^-3 to 3 x 10^-4 M after 24 to 48 hrs by alamar blue assay; assay type: functional, cell-based
SK-BR-3 [31] = experiment: Ratio of IC50 for aspirin to compound IC50 for human SKBR3 cells; assay type: functional
PANC-1 [32] = experiment: Ratio of IC50 for aspirin to compound IC50 for human PANC1 cells; assay type: functional
[33] = Aqueous solubility of the compound in 300 ml water; assay type: physicochemical; conditions: buffer
SK-BR-3 [34] = experiment: Cytotoxicity against human SKBR3 cells after 48 hrs by alamar blue assay; assay type: functional, cell-based; conditions: SK-BR-3, 48 h

CC(=O)Oc1ccccc1C(=O)O [ASPIRIN]
growth inhibition (GI) (SK-BR-3 [1]): Active
Activity (WI-38 [2]): Toxic
IC50 (PC-3 [3]): 771 µM
growth inhibition (GI) (PC-3 [4]): inactive
growth inhibition (GI) (SK-BR-3 [5]): inactive
growth inhibition (GI) (SK-BR-3 [6]): inactive
growth inhibition (GI) (PANC-1 [7]): Active
growth inhibition (GI) (PANC-1 [8]): inactive
growth inhibition (GI) (PC-3 [9]): inactive
Activity (WI-38 [10]): Toxic
growth inhibition (GI) (PC-3 [11]): Active
growth inhibition (GI) (PANC-1 [12]): inactive
solubility [13]: soluble
IC50 (PC-3 [14]): 782 µM
metabolised at 3 h [15]: 47%

CC(=O)Oc1ccccc1C(=O)O[C@@H]1[C@@H](O)[C@@H](O)O[C@H](CO)[C@H]1O
Activity (PC-3 [16]): Active
inhibition of growth at 300 µM (SK-BR-3 [1]; SK-BR-3, 48 h, read-out: GI): 90%
IC50 (WI-38 [17]): 310 µM
inhibition of growth at 150 µM (PANC-1 [18]): 60%
IC50 (SK-BR-3 [19]): 201 µM
Activity (WI-38 [20]): Non-toxic
inhibition of growth at 300 µM (PC-3 [21]): 60%
Ratio IC50 (PC-3 [22]): 8
IC50 (WI-38 [23]): 376 µM
inhibition of growth at 150 µM (SK-BR-3 [24]): 60%
IC50 (PC-3 [3]): 83.2 µM
inhibition of growth at 300 µM (SK-BR-3 [25]): 60%
IC50 (PANC-1 [26]): 90.5 µM
IC50 (PANC-1 [27]): 399 µM
growth inhibition (GI) (SK-BR-3 [5]): 20%
inhibition of growth at 300 µM (PANC-1 [28]): 60%
inhibition of growth at 150 µM (PC-3 [29]): 65%
inhibition of growth at 300 µM (PANC-1 [7]; PANC-1, 48 h, read-out: GI): 70%
Activity (WI-38 [30]): Active
growth inhibition (GI) (PC-3 [9]): 20%
Ratio IC50 (SK-BR-3 [31]): 8
inhibition of growth at 300 µM (PC-3 [11]; PC-3, 48 h, read-out: GI): 85%
growth inhibition (GI) (PANC-1 [12]): 20%
Ratio IC50 (PANC-1 [32]): 8
IC50 (PC-3 [14]): 81.4 µM
metabolised at 3 h [15]: 27%
solubility [33]: soluble
IC50 (SK-BR-3 [34]): 87.8 µM
